Measured values reported in PubChem BioAssay AID248 (DTP/NCI, 2004).
“And” between values parts separate entries of the source, which are not always exact repeats. Equal values may be shown once. Inconclusive results and toxic doses are left out. Rule as the data show it: active = T/C of 150% or more; inactive = T/C below 125%. Square brackets hold non-standard residues; d marks the D form. Peptide text beside a SMILES is read from it. * marks the point of attachment. ξ: configuration not given here. ξY = NC(Cc1ccc(O)cc1)C(=O)O; Cbz = O=C(OCc1ccccc1)*; OBn = c1ccc(CO*)cc1

Tested on: L1210 leukemia ip in BDF1 mice, survival T/C
Test: NCI In Vivo Anticancer Drug Screen. Data for tumor model L1210 Leukemia (intraperitoneal) in B6D2F1 (BDF1) mice
Conditions: endpoint: mean survival time, higher = longer survival
Outline: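 In this screen, tumor-bearing mice given compound are compared to those given vehicle, and their survival values are reported as a treated-to-control quotient.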

[1] = dose: 100.0 mg/kg/injection, schedule: Q04DX003 (ip), vehicle: Klucel (hydroxypropylcellulose) (HPC)
[2] = dose: 200.0 mg/kg/injection, schedule: Q04DX003 (ip), vehicle: Klucel (hydroxypropylcellulose) (HPC)
[3] = dose: 400.0 mg/kg/injection, schedule: Q04DX003 (ip), vehicle: Klucel (hydroxypropylcellulose) (HPC)
[4] = dose: 100.0 mg/kg/injection, schedule: Q01DX001 (ip), vehicle: carboxymethylcellulose (CMC)
[5] = dose: 200.0 mg/kg/injection, schedule: Q01DX001 (ip), vehicle: carboxymethylcellulose (CMC)
[6] = dose: 400.0 mg/kg/injection, schedule: Q01DX001 (ip), vehicle: carboxymethylcellulose (CMC)
[7] = dose: 75.0 mg/kg/injection, schedule: Q01DX001 (ip), vehicle: Klucel (hydroxypropylcellulose) (HPC)
[8] = dose: 150.0 mg/kg/injection, schedule: Q01DX001 (ip), vehicle: Klucel (hydroxypropylcellulose) (HPC)
[9] = dose: 300.0 mg/kg/injection, schedule: Q01DX001 (ip), vehicle: Klucel (hydroxypropylcellulose) (HPC)
[10] = dose: 50.0 mg/kg/injection, schedule: Q01DX001 (ip), vehicle: saline
[11] = dose: 100.0 mg/kg/injection, schedule: Q01DX001 (ip), vehicle: saline
[12] = dose: 200.0 mg/kg/injection, schedule: Q01DX001 (ip), vehicle: saline
[13] = dose: 400.0 mg/kg/injection, schedule: Q01DX001 (ip), vehicle: saline

Measured: T/C

O=C(Nc1ccc([N+](=O)[O-])cc1)Nc1ccc([N+](=O)[O-])cc1 (tested in a mixture with another compound)
inactive: [1] 89 % of control | dose: 200.0 mg/kg/injection, schedule: Q01DX009 (ip), vehicle: saline 98 % of control | [2] 100 % of control | dose: 400.0 mg/kg/injection, schedule: Q01DX009 (ip), vehicle: saline 88 % of control | [3] 89 % of control

CNC(=O)Nc1cc(C)ccc1Cl
inactive: dose: 50.0 mg/kg/injection, schedule: Q01DX009 (ip), vehicle: carboxymethylcellulose (CMC) 95 % of control and 89 % of control | dose: 87.5 mg/kg/injection, schedule: Q04DX003 (ip), vehicle: carboxymethylcellulose (CMC) 101 % of control | [4] 94 % of control | dose: 100.0 mg/kg/injection, schedule: Q04DX002 (ip), vehicle: carboxymethylcellulose (CMC) 100 % of control and 117 % of control | dose: 175.0 mg/kg/injection, schedule: Q04DX003 (ip), vehicle: carboxymethylcellulose (CMC) 93 % of control | [5] 92 % of control | dose: 200.0 mg/kg/injection, schedule: Q04DX002 (ip), vehicle: carboxymethylcellulose (CMC) 100 % of control and 102 % of control | dose: 350.0 mg/kg/injection, schedule: Q04DX003 (ip), vehicle: carboxymethylcellulose (CMC) 104 % of control | [6] 94 % of control | dose: 400.0 mg/kg/injection, schedule: Q01DX009 (ip), vehicle: carboxymethylcellulose (CMC) 93 % of control | dose: 400.0 mg/kg/injection, schedule: Q04DX002 (ip), vehicle: carboxymethylcellulose (CMC) 93 % of control and 96 % of control

O=C(Nc1ccccc1Cl)Nc1ccccc1Br
inactive: dose: 100.0 mg/kg/injection, schedule: Q04DX002 (ip), vehicle: saline + alcohol 103 % of control | dose: 200.0 mg/kg/injection, schedule: Q04DX002 (ip), vehicle: saline + alcohol 96 % of control | dose: 400.0 mg/kg/injection, schedule: Q04DX002 (ip), vehicle: saline + alcohol 92 % of control

CCOC(=O)CCCNc1ccccc1C(=O)OC
inactive: [4] 110 % of control | [5] 107 % of control | [6] 107 % of control

O=C(CNC(=O)OCc1ccccc1)NC(Cc1ccc(O)cc1)C(=O)OCc1ccccc1 (stereo not drawn) (Cbz-Gly-[ξY]-OBn)
inactive: [1] 96 % of control | [2] 97 % of control | [3] 91 % of control

CSc1nc(N)cc(Nc2ccc(Cl)[nH]c2=S)n1
inactive: [7] 92 % of control | [8] 95 % of control | [9] 93 % of control

O=[N+]([O-])c1cccc(S(=O)(=O)NNc2ccc(Br)cc2)c1
inactive: [1] 96 % of control | [2] 93 % of control | [3] 89 % of control

CN(C)c1ccc2c(c1)N=[N+]([O-])c1cc(N(C)C)ccc1C2
inactive: dose: 100.0 mg/kg/injection, schedule: Q01DX001 (ip), vehicle: Klucel (hydroxypropylcellulose) (HPC) 97 % of control | dose: 200.0 mg/kg/injection, schedule: Q01DX001 (ip), vehicle: Klucel (hydroxypropylcellulose) (HPC) 97 % of control | dose: 400.0 mg/kg/injection, schedule: Q01DX001 (ip), vehicle: Klucel (hydroxypropylcellulose) (HPC) 89 % of control

C=CCNC(=O)Oc1cccc(NC(=O)CC)c1
inactive: dose: 100.0 mg/kg/injection, schedule: Q01DX009 (ip), vehicle: saline with Tween-80 94 % of control | dose: 200.0 mg/kg/injection, schedule: Q01DX009 (ip), vehicle: saline with Tween-80 91 % of control | dose: 400.0 mg/kg/injection, schedule: Q01DX009 (ip), vehicle: saline with Tween-80 87 % of control

COC1C(OC(N)=O)C(O)C(Oc2ccc3c(O)c(N)c(=O)oc3c2C)OC1(C)C (stereo not given)
inactive: dose: 37.5 mg/kg/injection, schedule: Q01DX009 (ip), vehicle: Klucel (hydroxypropylcellulose) (HPC) 98 % of control | dose: 75.0 mg/kg/injection, schedule: Q01DX009 (ip), vehicle: Klucel (hydroxypropylcellulose) (HPC) 101 % of control | dose: 150.0 mg/kg/injection, schedule: Q01DX009 (ip), vehicle: Klucel (hydroxypropylcellulose) (HPC) 104 % of control | dose: 300.0 mg/kg/injection, schedule: Q01DX009 (ip), vehicle: Klucel (hydroxypropylcellulose) (HPC) 101 % of control

N#CCc1cnc2ccccc2n1
inactive: dose: 6.25 mg/kg/injection, schedule: Q01DX009 (ip), vehicle: saline with Tween-80 96 % of control | dose: 12.5 mg/kg/injection, schedule: Q01DX009 (ip), vehicle: saline with Tween-80 98 % of control | dose: 12.5 mg/kg/injection, schedule: Q04DX003 (ip), vehicle: saline with Tween-80 94 % of control | dose: 25.0 mg/kg/injection, schedule: Q01DX009 (ip), vehicle: saline with Tween-80 101 % of control | dose: 25.0 mg/kg/injection, schedule: Q04DX003 (ip), vehicle: saline with Tween-80 96 % of control

Cc1[nH]c2ccccc2c(=O)c1-c1ccccc1
inactive: [10] 98 % of control | [11] 98 % of control | [12] 102 % of control | [13] 96 % of control

c1ccc(COC2NCCN2Cc2ccccc2)cc1 (stereo not given)
inactive: [11] 98 % of control | [12] 101 % of control | [13] 101 % of control

O=C(O)c1ccc(P(=O)(O)O)cc1[N+](=O)[O-]
inactive: dose: 50.0 mg/kg/injection, schedule: Q04DX003 (ip), vehicle: saline 95 % of control | dose: 100.0 mg/kg/injection, schedule: Q04DX003 (ip), vehicle: saline 100 % of control

Nc1nc(-c2ccccc2)c(CC(=O)O)s1
inactive: [1] 93 % of control | [2] 100 % of control | [3] 96 % of control

CC(C1CCCCC1)C(C#N)C(=O)NC(N)=O (stereo not given)
inactive: [10] 97 % of control | [11] 92 % of control | [12] 95 % of control | [13] 90 % of control

Cc1cccc(NC(=O)CCCCCCCCC(=O)Nc2cccc(C)c2C)c1C
inactive: dose: 100.0 mg/kg/injection, schedule: Q01DX009 (ip), vehicle: Klucel (hydroxypropylcellulose) (HPC) 92 % of control | dose: 200.0 mg/kg/injection, schedule: Q01DX009 (ip), vehicle: Klucel (hydroxypropylcellulose) (HPC) 102 % of control | dose: 400.0 mg/kg/injection, schedule: Q01DX009 (ip), vehicle: Klucel (hydroxypropylcellulose) (HPC) 98 % of control

CCCCOC1OCN(C(C)(C)C)CC1(C)C (stereo not given)
inactive: dose: 100.0 mg/kg/injection, schedule: Q04DX002 (ip), vehicle: saline 104 % of control | dose: 200.0 mg/kg/injection, schedule: Q04DX002 (ip), vehicle: saline 112 % of control | dose: 400.0 mg/kg/injection, schedule: Q04DX002 (ip), vehicle: saline 101 % of control

CC(=O)/C=C(\C)NCC(C)N/C(C)=C/C(C)=O (stereo not given)
inactive: [11] 105 % of control | [12] 96 % of control | [13] 99 % of control

C[C@H](CCC(=O)O)[C@H]1CC[C@H]2[C@@H]3CCC4=C(O)C(=O)CC[C@]4(C)[C@H]3CC(=O)[C@]12C
inactive: dose: 100.0 mg/kg/injection, schedule: Q01DX001 (sc), vehicle: steriod suspending solution 101 % of control | dose: 200.0 mg/kg/injection, schedule: Q01DX001 (sc), vehicle: steriod suspending solution 98 % of control | dose: 400.0 mg/kg/injection, schedule: Q01DX001 (sc), vehicle: steriod suspending solution 103 % of control

CCOC(=O)C(CC(C)C)NC(=O)C(N)Cc1ccc(N(CCCl)CCCl)cc1 (stereo not given)
inactive: dose: 2.5 mg/kg/injection, schedule: Q01DX009 (ip), vehicle: water 116 % of control

O=S1(=O)CC2(C1)OCCO2
inactive: dose: 100.0 mg/kg/injection, schedule: Q04DX002 (ip), vehicle: Klucel (hydroxypropylcellulose) (HPC) 94 % of control | dose: 200.0 mg/kg/injection, schedule: Q04DX002 (ip), vehicle: Klucel (hydroxypropylcellulose) (HPC) 94 % of control

Cc1ccc(S(=O)(=O)N(CCCc2c(C)nc(N)[nH]c2=O)Cc2ccc([N+](=O)[O-])cc2)cc1
inactive: [7] 102 % of control | [8] 97 % of control | [9] 103 % of control
